Measurements: paper PMC6199744, “Development of Chemical Proteomics for the Folateome and Analysis of the Kinetoplastid Folateome” (ACS Infectious Diseases, 2018)
Like-named read-outs stand apart in the source and are kept apart here.

Assays:
Assay type in all cases: binding
[1] = molecular target: T1, HeLa cell extract proteins (Homo sapiens, UniProt Q9NR09)
T1 construct: endogenous in cells; host or cells: HeLa cell extract

[2] = molecular target: T2, HeLa cell extract proteins (Homo sapiens, UniProt P07814)
T2 construct: endogenous in cells; host or cells: HeLa cell extract
T2 sequence (P07814 whole entry): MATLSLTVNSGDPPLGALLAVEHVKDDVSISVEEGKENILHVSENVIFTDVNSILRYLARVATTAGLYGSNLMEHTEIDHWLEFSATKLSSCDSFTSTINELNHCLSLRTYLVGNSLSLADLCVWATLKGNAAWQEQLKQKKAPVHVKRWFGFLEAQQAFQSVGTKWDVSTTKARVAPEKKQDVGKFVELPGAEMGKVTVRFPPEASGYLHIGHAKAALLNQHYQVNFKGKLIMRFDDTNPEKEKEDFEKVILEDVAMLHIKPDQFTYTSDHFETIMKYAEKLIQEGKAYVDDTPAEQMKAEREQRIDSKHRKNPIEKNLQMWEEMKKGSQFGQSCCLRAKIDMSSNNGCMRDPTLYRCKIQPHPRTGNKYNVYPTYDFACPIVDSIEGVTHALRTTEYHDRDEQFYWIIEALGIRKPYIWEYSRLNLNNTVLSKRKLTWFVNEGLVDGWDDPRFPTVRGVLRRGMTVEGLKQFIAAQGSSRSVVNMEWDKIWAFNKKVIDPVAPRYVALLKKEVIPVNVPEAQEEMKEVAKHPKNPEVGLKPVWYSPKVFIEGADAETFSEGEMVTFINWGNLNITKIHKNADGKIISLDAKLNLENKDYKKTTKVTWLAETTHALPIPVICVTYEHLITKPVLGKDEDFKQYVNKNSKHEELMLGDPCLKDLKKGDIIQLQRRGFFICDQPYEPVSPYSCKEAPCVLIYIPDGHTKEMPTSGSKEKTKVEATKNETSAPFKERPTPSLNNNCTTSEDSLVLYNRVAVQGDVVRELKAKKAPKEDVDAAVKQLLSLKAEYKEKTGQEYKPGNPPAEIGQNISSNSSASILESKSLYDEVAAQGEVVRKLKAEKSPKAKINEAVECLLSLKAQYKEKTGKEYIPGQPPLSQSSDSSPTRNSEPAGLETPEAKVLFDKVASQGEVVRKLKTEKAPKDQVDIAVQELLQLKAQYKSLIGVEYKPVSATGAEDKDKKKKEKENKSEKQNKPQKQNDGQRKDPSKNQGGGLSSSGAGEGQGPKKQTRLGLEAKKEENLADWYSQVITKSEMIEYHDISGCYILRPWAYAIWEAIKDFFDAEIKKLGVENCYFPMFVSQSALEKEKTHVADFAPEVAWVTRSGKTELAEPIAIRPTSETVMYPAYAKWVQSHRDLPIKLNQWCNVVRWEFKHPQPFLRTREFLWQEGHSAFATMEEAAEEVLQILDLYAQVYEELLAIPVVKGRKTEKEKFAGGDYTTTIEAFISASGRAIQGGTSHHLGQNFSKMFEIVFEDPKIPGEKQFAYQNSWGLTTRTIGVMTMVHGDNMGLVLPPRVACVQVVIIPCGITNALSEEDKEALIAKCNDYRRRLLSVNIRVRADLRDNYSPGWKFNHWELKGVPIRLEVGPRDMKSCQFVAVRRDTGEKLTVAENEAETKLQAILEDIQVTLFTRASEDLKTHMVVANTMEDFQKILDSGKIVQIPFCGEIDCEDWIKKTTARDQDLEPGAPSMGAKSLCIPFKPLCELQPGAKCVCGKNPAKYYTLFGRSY

[3] = molecular target: T3, HeLa cell extract proteins (Homo sapiens, UniProt Q9H857)
T3 construct: endogenous in cells; host or cells: HeLa cell extract
T3 sequence (Q9H857 1-520): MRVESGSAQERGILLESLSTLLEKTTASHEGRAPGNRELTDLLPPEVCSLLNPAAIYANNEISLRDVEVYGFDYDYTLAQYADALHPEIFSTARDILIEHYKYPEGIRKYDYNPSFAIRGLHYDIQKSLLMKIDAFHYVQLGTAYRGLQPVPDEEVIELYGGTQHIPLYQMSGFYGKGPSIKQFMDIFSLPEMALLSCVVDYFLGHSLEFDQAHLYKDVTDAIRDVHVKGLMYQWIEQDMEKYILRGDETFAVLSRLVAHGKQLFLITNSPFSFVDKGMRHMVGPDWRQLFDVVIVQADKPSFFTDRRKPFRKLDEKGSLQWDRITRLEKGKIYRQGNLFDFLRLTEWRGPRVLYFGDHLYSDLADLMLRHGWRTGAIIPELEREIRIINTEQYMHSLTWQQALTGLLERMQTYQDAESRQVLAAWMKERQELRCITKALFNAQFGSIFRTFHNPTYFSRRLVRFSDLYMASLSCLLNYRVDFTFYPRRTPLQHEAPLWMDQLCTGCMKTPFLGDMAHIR

[4] = molecular target: T4, HeLa cell extract proteins (Homo sapiens, UniProt P55735)
T4 construct: endogenous in cells; host or cells: HeLa cell extract
T4 sequence (P55735 1-322): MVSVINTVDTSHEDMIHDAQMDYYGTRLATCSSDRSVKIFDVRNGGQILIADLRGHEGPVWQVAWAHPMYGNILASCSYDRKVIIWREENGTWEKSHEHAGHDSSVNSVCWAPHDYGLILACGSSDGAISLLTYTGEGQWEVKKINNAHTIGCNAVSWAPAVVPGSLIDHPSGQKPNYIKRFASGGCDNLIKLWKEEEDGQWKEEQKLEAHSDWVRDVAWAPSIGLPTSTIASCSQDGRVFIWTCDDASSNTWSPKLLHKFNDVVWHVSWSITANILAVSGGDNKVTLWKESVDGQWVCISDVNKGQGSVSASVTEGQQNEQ

[5] = molecular target: T5, HeLa cell extract proteins (Homo sapiens, UniProt O00303)
T5 construct: endogenous in cells; host or cells: HeLa cell extract
T5 sequence (O00303 whole entry): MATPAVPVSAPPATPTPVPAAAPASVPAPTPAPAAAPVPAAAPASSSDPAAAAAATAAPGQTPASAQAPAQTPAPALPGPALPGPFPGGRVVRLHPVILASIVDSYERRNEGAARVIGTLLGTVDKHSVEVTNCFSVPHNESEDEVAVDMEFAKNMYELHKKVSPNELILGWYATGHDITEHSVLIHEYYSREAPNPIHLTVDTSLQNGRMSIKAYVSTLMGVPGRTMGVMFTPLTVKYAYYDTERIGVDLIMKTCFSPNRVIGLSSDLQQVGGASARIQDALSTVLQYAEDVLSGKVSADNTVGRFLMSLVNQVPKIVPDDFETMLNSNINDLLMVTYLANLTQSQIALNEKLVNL

[6] = molecular target: T6, HeLa cell extract proteins (Homo sapiens, UniProt Q13409)
T6 construct: endogenous in cells; host or cells: HeLa cell extract
T6 sequence (Q13409 whole entry): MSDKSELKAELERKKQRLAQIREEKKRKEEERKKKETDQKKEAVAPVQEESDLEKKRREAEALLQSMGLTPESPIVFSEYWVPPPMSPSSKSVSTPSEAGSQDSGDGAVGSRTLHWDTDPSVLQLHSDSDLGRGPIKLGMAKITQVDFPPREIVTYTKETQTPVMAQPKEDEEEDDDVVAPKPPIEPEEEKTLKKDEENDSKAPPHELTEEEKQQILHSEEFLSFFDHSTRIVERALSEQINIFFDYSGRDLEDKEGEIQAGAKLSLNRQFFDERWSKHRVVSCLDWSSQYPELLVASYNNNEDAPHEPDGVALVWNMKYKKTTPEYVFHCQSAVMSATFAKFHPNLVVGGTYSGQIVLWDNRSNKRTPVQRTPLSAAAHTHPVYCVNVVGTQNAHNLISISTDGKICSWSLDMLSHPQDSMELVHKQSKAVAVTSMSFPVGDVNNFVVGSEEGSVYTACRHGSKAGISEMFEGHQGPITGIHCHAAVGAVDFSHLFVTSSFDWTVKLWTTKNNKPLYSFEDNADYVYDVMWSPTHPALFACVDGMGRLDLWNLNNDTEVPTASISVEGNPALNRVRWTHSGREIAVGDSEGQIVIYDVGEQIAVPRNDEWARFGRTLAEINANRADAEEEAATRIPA

[7] = molecular target: T7, HeLa cell extract proteins (Homo sapiens, UniProt O43592)
T7 construct: endogenous in cells; host or cells: HeLa cell extract
T7 sequence (O43592 1-962): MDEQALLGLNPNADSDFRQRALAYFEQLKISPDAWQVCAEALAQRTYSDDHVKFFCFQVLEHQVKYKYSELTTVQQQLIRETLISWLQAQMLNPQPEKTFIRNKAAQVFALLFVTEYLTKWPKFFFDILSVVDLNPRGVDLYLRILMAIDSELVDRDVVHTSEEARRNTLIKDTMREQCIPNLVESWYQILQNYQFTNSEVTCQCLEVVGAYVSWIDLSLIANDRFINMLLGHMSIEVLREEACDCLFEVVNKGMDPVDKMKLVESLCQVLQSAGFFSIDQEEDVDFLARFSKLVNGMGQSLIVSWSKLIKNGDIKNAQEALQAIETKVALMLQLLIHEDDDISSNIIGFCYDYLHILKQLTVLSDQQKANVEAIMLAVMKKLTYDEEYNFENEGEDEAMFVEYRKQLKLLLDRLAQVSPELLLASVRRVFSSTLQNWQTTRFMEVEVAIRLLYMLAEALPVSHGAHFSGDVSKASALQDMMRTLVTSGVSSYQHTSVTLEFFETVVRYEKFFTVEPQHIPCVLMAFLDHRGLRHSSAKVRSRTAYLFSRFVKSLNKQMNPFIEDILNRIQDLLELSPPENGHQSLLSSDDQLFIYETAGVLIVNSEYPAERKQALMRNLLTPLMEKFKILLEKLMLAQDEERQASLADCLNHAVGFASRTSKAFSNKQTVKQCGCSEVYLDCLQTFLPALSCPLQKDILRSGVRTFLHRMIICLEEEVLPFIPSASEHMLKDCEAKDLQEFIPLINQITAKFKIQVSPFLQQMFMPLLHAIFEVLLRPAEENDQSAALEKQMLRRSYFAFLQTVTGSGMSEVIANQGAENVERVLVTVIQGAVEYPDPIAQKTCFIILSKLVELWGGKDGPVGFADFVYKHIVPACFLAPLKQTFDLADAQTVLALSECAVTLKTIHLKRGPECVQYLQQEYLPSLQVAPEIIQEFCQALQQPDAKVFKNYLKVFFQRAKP

[8] = molecular target: T8, HeLa cell extract proteins (Homo sapiens, UniProt P14868)
T8 construct: endogenous in cells; host or cells: HeLa cell extract
T8 sequence (P14868 1-501): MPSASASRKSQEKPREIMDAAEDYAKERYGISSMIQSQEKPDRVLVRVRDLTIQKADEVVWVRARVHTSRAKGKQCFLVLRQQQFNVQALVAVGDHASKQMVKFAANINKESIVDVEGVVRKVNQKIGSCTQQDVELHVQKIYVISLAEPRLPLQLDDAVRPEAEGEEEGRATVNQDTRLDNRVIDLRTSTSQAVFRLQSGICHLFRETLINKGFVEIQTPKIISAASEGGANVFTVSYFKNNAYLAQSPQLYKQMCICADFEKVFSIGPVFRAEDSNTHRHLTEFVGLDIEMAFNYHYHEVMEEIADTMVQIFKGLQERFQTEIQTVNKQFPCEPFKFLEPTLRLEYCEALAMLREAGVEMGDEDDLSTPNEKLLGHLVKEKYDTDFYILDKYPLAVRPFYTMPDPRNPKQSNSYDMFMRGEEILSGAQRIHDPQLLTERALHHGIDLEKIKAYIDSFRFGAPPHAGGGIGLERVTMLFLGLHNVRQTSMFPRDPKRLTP

[9] = molecular target: T9, HeLa cell extract proteins (Homo sapiens, UniProt P16070)
T9 construct: endogenous in cells; host or cells: HeLa cell extract
T9 sequence (P16070 21-742): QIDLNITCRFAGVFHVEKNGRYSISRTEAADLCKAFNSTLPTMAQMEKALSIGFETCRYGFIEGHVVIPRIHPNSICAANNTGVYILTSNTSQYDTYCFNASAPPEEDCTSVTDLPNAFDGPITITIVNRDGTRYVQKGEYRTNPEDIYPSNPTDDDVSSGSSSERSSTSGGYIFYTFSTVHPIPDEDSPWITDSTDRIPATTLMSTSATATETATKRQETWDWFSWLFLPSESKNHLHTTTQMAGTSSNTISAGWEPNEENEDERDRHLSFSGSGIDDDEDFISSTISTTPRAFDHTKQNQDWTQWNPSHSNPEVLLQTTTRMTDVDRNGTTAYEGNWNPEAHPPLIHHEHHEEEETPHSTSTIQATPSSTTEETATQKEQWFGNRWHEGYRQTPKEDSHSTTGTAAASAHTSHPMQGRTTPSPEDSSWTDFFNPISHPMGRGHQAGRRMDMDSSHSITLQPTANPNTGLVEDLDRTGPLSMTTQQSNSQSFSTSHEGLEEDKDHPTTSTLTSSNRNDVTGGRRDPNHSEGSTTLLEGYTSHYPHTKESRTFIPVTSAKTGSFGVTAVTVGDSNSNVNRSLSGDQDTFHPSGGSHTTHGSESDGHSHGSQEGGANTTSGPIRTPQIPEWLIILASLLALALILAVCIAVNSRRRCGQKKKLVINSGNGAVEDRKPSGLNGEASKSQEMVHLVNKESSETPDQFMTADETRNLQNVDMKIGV

[10] = HeLa, protein BIRC6 (B[…] REPEAT-CONTAINING 6)
[11] = HeLa, protein EPRS (BI[…]-TRNA SYNTHETASE)

Row | SMILES | fold changes relative to vehicle control ([1]; HeLa, protein BIRC6) | fold changes relative to vehicle control ([2]; protein EPRS, HeLa) | fold changes relative to vehicle control ([3]; protein NT5DC2, HeLa) | fold changes relative to vehicle control ([4]; HeLa, protein SEC13) | fold changes relative to vehicle control ([5]; HeLa, protein EIF3F) | fold changes relative to vehicle control ([6]; HeLa, protein DYNC1I2) | fold changes relative to vehicle control ([7]; HeLa, protein XPOT) | fold changes relative to vehicle control ([8]; protein DARS, HeLa) | fold changes relative to vehicle control ([9]; protein CD44, HeLa) | fold changes relative to vehicle control [1, 10] | fold changes relative to vehicle control [2, 11] | fold changes relative to vehicle control ([3]; HeLa, captured protein NT5DC2) | fold changes relative to vehicle control ([4]; HeLa, captured protein SEC13) | fold changes relative to vehicle control ([5]; protein EIF3F, HeLa) | fold changes relative to vehicle control ([8]; HeLa, protein DARS) | also measured
1 | Nc1nc2cccc(-c3ccccc3)c2n1Cc1ccc(Cl)c(Cl)c1 [compound 3] | 1.12 | 1.13 | 1 | 0.95 | 1.05 | 0.89 | 1.08 | 0.93 | 1.49 | – | – | – | – | – | – | –
2 | NCCOCCOCC(=O)Nc1nc2ncc(CNc3ccc(C(=O)NC(CCC(=O)O)C(=O)O)cc3)nc2c(=O)[nH]1 (stereo not drawn) [compound 6] | – | – | – | – | – | 0.93 | 0.94 | – | 1.3 | 1.06 | 1.19 | 0.96 | 0.86 | 0.96 | 0.99 | –
3 | Nc1nc2[nH]cc(CCc3ccc(C(=O)N[C@@H](CCC(=O)O)C(=O)O)cc3)c2c(=O)[nH]1 [PTX, pemetrexed] | – | – | – | – | – | – | – | – | – | – | – | – | – | – | – | fold changes relative to vehicle control [1]: 1; fold changes relative to vehicle control [2]: 1.06; fold changes relative to vehicle control [3]: 0.91; fold changes relative to vehicle control [4]: 0.92; fold changes relative to vehicle control [5]: 0.92; fold changes relative to vehicle control [6]: 0.94; fold changes relative to vehicle control [7]: 0.84; fold changes relative to vehicle control [8]: 0.98; fold changes relative to vehicle control [9]: 1.04
4 | Nc1nc2c(c(=O)[nH]1)N(C=O)C(CNc1ccc(C(=O)N[C@@H](CCC(=O)O)C(=O)O)cc1)CN2 (stereo partly drawn) [LEU, leucovorin] | – | – | – | – | – | 0.9 | 0.94 | – | 1.08 | 1.08 | 1.11 | 0.94 | 1.02 | 0.95 | 0.94 | –
5 | CCCCCCOc1ccc(Cc2cnc(N)nc2N)cc1 [compound 1] | 1.06 | 1.06 | 1.05 | 0.93 | 0.93 | 0.88 | 0.95 | 1.02 | 1.08 | – | – | – | – | – | – | –
6 | NCCCNc1ccc(C(=O)NC(CCC(=O)O)C(=O)O)cc1 (stereo not drawn) [compound 7] | – | – | – | – | – | 0.95 | 0.99 | – | 1.06 | 1.12 | 1.09 | 0.97 | 0.98 | 1.01 | 1.06 | –
7 | CCCCCCOc1cccc(Cc2cnc(N)nc2N)c1 [compound 2] | 0.92 | 1.25 | 0.91 | 0.86 | 1.24 | 1.13 | 1.02 | 1.15 | 1.42 | – | – | – | – | – | – | –
